Experimental data reported in paper PMC9718554, “Discovery of a fragment hit compound targeting D-Ala:D-Ala ligase of bacterial peptidoglycan biosynthesis” (Journal of Enzyme Inhibition and Medicinal Chemistry, 2022).
Like-named read-outs stand apart in the source and are kept apart here.

Molecular target: T1, E. coli DdlB enzyme (D-alanine:D-alanine ligase) (Escherichia coli, UniProt P07862)
T1 construct: made in house; host or cells: E. coli
Assay: biochemical
Details: read-out: DdlB RA; for remaining activity at 2000 µM: tested concentration 2.0 mM; for remaining activity at 2300 µM: tested concentration 2.3 mM; for remaining activity at 2200 µM: tested concentration 2.2 mM; for remaining activity at 1700 µM: tested concentration 1.7 mM; for remaining activity at 2100 µM: tested concentration 2.1 mM; for remaining activity at 1800 µM: tested concentration 1.8 mM
Procedure: The fragment library was assayed in a DdlB inhibition assay, where fragments were tested for their ability to inhibit the D-Ala-adding activity of DdlB ligase. The orthophosphate formed during the enzymatic reaction was measured spectrophotometrically using malachite green reagent.
A recombinant E. coli DdlB enzyme (D-alanine:D-alanine ligase) was expressed in E. coli[11]. […] The final DMSO concentration was 5%. […] All experiments were performed in duplicates. […] IC50 values were determined by measuring the residual activities in quadruplicate at seven different compound concentrations and calculated using in GraphPad Prism (GraphPad Software, San Diego, CA, USA).

OB(O)c1ccc(OCc2ccccc2)c(F)c1 [Compound 1222-0119]
remaining activity at 2000 µM: 98%

COc1ccc(B(O)O)cc1F [Compound 1222-0120]
remaining activity at 2900 µM (tested concentration 2.9 mM): 93%

OB(O)c1ccc(F)c(F)c1 [Compound 1222-0123]
remaining activity at 3200 µM (tested concentration 3.2 mM): 88%

Cc1c(N)c(=O)n(-c2ccccc2)n1C [Compound 1254-0226]
remaining activity at 2500 µM (tested concentration 2.5 mM): 95%

NS(=O)(=O)c1ccc2c(c1)OCCO2 [Compound 1313-0805]
remaining activity at 2300 µM: 88%

NC1=NC(=O)CO1 [Compound 1318-0067]
remaining activity at 5000 µM (residual activity of DdlB, fragment library screening, tested concentration 5.0 mM): 102%

Cc1ccc2ccc(S(=O)(=O)O)cc2c1 [Compound 1326-0466]
remaining activity at 2200 µM: 101%

N#Cc1cccc2cccc(S(=O)(=O)O)c12 [Compound 1326-0564]
remaining activity at 2200 µM: 96%

O=C(O)c1cc(S(=O)(=O)N2CCOCC2)ccc1O [Compound 1494-0564]
remaining activity at 1700 µM (residual activity): 92%

O=C(O)c1ccccc1C(=O)NCc1cccnc1 [Compound 1514-0633]
remaining activity at 2000 µM (fragment library screening): 93%

Cc1cccc(OCC(=O)NC(C)C(=O)O)c1 (stereo not drawn) [Compound 1683-0903]
remaining activity at 2100 µM: 98%

COC(=O)CCC(=O)Nc1ccc(S(N)(=O)=O)cc1 [Compound 1699-0796]
remaining activity at 1700 µM: 89%

Cc1ccc(O)c(CCc2ccc(O)cc2)n1 [Compound 1733-0143]
remaining activity at 2100 µM: 90%

O=S(=O)(Nc1ccccc1Cl)c1ccc(F)cc1 [Compound 1763-0763]
remaining activity at 1900 µM (residual activity, tested concentration 1.9 mM): 115%

CC(=O)NCCc1ccc(S(N)(=O)=O)cc1 [Compound 2332-0866]
remaining activity at 2100 µM: 94%

Cc1ccc(S(=O)(=O)N2CCOCC2)c(C)c1 [Compound 2488-0460]
remaining activity at 2200 µM: 90%

Cc1cc(N)n(-c2ccc(S(=O)(=O)O)cc2)n1 [Compound 2991-0739]
remaining activity at 2000 µM: 97%

Oc1nnc(-c2ccccc2)c(-c2ccccc2)n1 [Compound 3039-0046]
remaining activity at 2000 µM (residual activity): 104%

COc1ccc2[nH]c(S(=O)(=O)O)nc2c1 [Compound 3260-0314]
remaining activity at 2200 µM: 91%

CCC([N+](=O)[O-])C1(O)C(=O)Nc2ccccc21 (stereo not drawn) [Compound 3817-0017]
remaining activity at 2100 µM (residual activity): 95%

COC(=O)c1ccc(S(=O)(=O)O)o1 [Compound 4055-0046]
remaining activity at 2400 µM (tested concentration 2.4 mM): 102%

Cc1ccc2nc(C)c(CN3CCCCC3C)c(O)c2c1 (stereo not drawn) [Compound 4300-0248]
remaining activity at 1800 µM (residual activity): 87%

O=S(=O)(O)c1ccc(O)c2ncccc12 [Compound 4311-2142]
remaining activity at 2200 µM: 96%

O=C(COc1cccc(Br)c1)Nc1nnc[nH]1 [Compound 4491-0732]
remaining activity at 1700 µM: 94%

Cc1cccc(C)c1NC(=O)C[C@H](NCCO)C(=O)O [Compound 4553-3784]
remaining activity at 1800 µM (fragment library screening): 102%

CC(C)n1c(S(=O)(=O)O)nc2ccccc21 [Compound 4587-0081]
remaining activity at 2100 µM: 83%

CC1(C)Cc2[nH]c(=O)c(C(=O)O)cc2CO1 [Compound 4965-0162]
remaining activity at 2200 µM (residual activity): 93%

c1ccc2c(c1)N(CN1CCCC1)CC21OCCO1 [Compound 5482-0050]
remaining activity at 2300 µM: 94%

CC1(C)Cc2nc(N)c(C(=O)O)cc2CO1 [Compound 5545-0125]
remaining activity at 2300 µM (residual activity): 95%

CN1CCN(C2CC(=O)N(c3ccccc3)C2=O)CC1 (stereo not drawn) [Compound 5593-0294]
remaining activity at 2000 µM (residual activity): 99%

Cc1ccc([C@@H](CC(=O)O)c2ccco2)cc1 [Compound 5664-0388]
remaining activity at 2200 µM: 100%

CC(=O)CC1(O)C(=O)Nc2ccc(Br)cc21 (stereo not drawn) [Compound 5897-0084]
remaining activity at 1800 µM (residual activity): 96%

O=S(=O)(O)CCN1CCN(CCO)CC1 [Compound 6105-1549]
remaining activity at 2100 µM: 99%
